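Assay format: 96-well plates, 48-hour exposure. GI50 = concentration required for 50% inhibition of growth.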 Activity calls are given as the source filed them. No stated cut-off is given here; in the data, active = GI50 up to about 1.1 µM and inactive = higher.

Common to all, as to experiment: inhibition of tumour cell growth, NCI panel, 48 h
In test [1] the test system is UACC-257.
For test [2], the system named is NCI-H226.
Test [3] relates to MDA-N.
In test [4] the test system is SF-295.
Test [5] relates to SNB-75.
The test system of test [6] is BT-549.
The test system of test [7] is HCC 2998.
In test [8] the test system is 786-0.
The test system of test [9] is OVCAR-3.
For test [10], the system named is MDA-MB-435.
Test [11] relates to K562.
For test [12], the system named is RXF 393.
Test [13] deals with MCF7.
Test [14] relates to SN12C.
For test [15], the system named is SF-268.
For test [16], the system named is EKVX.
Test [17] concerns NCI-H23.
Test [18] has as its system OVCAR-8.
Test [19] relates to SK-MEL-2.

Consider `COc1cc(N(CCC#N)CCC#N)ccc1/C=C1\SC(=S)NC1=O`, for which the GI50 in test [1], in [2], in [3], in test [4], in test [5] and in test [6] was > 100 µM (inactive) in each case. In addition, the GI50 in [7], in test [8], in test [9], in test [10], in test [11] and in test [12] was > 100 µM (inactive) each time. Also, the GI50 in test [13], in [14], in test [15], in test [16], in test [17] and in [18] was > 100 µM (inactive) each time. Further, the GI50 in test [19] was > 100 µM (inactive).
On to `COc1ccc(/C=C2/S/C(=N\c3ccccc3)N(NC(=O)Cc3ccccc3)C2=O)cc1`, for which the GI50 in [1], in test [2], in test [3], in [4], in test [5] and in test [6] was > 100 µM (inactive) throughout. Further, the GI50 in test [7], in [8], in [9], in test [10], in test [11] and in test [12] was > 100 µM (inactive) each time. Moreover, the GI50 in test [13], in test [14], in test [15], in test [16], in test [17] and in test [18] was > 100 µM (inactive) throughout. The GI50 in test [19] is > 100 µM (inactive).
`C=C(C=O)c1c2c(nc3ccccc13)C(=O)c1ccccc1C2=O`: the GI50 in [1] was 1.49 µM (inactive); in test [2] it was 0.966 µM (active); in [3], 0.202 µM (active); in test [4], 1.29 µM (inactive); in test [5] it was 1.14 µM (inactive); in test [6], 1.82 µM (inactive). Moreover, the GI50 in test [7] is 2.75 µM (inactive); in test [8], 0.826 µM (active); in test [9], 0.398 µM (active); in test [10], 0.273 µM (active); in [11] it was 0.391 µM (active); in [12], 0.304 µM (active). Moreover, the GI50 is 0.429 µM (active) in test [13]; 0.504 µM (active) in [14]; 0.668 µM (active) in test [15]; 1.19 µM (inactive) in test [16]; 0.481 µM (active) in test [17]; 0.434 µM (active) in [18]. In addition, the GI50 in [19] is 1.37 µM (inactive).
In the case of `O=C1C=CC2(O[C@H](C3CCCCC3)[C@@H](C3CCCCC3)O2)C(SC(=O)c2ccccc2)C1` (stereo not given in full), the GI50 in [1] is 7.05 µM (inactive); in test [2], 0.82 µM (active); in test [3], 1.78 µM (inactive); in test [4], 7.14 µM (inactive); in [5] it was 7.24 µM (inactive); in [6], 3.1 µM (inactive). The GI50 in test [7] was 1.25 µM (inactive); in [8] it was 1.68 µM (inactive); in test [9], 0.891 µM (active); in [10], 1.62 µM (inactive); in test [11], 1.4 µM (inactive); in test [12], 1.01 µM (active). Further, the GI50 in test [13] was 1.48 µM (inactive); in test [14] it was 1.82 µM (inactive); in test [15], 2.62 µM (inactive); in test [16], 6.1 µM (inactive); in test [17] it was 2.47 µM (inactive); in test [18], 1.73 µM (inactive). Besides, in test [19], the GI50 was 4.21 µM (inactive).
For the molecule `Cc1c(C)c(C)c(-n2c(=O)n(C)c(=O)n2-c2cc(C(C)(C)C)cc(C(C)(C)C)c2O)c(C)c1C`, the GI50 in test [1] was 9.66 µM (inactive); in test [2], 8.32 µM (inactive); in test [3], 10.5 µM (inactive); in test [4] it was 8.99 µM (inactive); in test [5], 4.14 µM (inactive); in test [6], 13.5 µM (inactive). Further, the GI50 was 9.93 µM (inactive) in [7]; 10.4 µM (inactive) in [8]; 4.68 µM (inactive) in test [9]; 11.9 µM (inactive) in test [10]; 6.21 µM (inactive) in [11]; 2.97 µM (inactive) in [12]. Also, the GI50 was 4.06 µM (inactive) in test [13]; 9.44 µM (inactive) in test [14]; 12.4 µM (inactive) in test [15]; 10.5 µM (inactive) in test [16]; 7.91 µM (inactive) in [17]; 10.4 µM (inactive) in test [18]. For the same molecule, the GI50 in test [19] is 6.47 µM (inactive).
On to `O=C(c1c(F)c(F)c(F)c(F)c1F)c1c(F)c(F)c(F)c(F)c1F`, for which the GI50 was 1.84 µM (inactive) in test [1]; 3.51 µM (inactive) in [2]; 1.43 µM (inactive) in test [3]; 2.55 µM (inactive) in [4]; 1.98 µM (inactive) in test [5]; 2.46 µM (inactive) in [6]. Also, the GI50 in test [7] is 1.67 µM (inactive); in [8], 0.476 µM (active); in test [9], 0.979 µM (active); in test [10], 1.56 µM (inactive); in test [11], 0.316 µM (active); in test [12], 1.55 µM (inactive). The GI50 in test [13] is 0.299 µM (active); in test [14], 1.87 µM (inactive); in test [15], 2.55 µM (inactive); in [16], 1.96 µM (inactive); in test [17], 2.48 µM (inactive); in [18], 1.5 µM (inactive). Moreover, the GI50 in test [19] is 2.24 µM (inactive).
On to `COc1cc(NC=C2C(=O)OC(C)(C)OC2=O)c(OC)c(C)c1OC`, for which the GI50 was > 100 µM (inactive) in test [1]; > 100 µM (inactive) in test [2]; > 100 µM (inactive) in [3]; > 100 µM (inactive) in test [4]; > 88.3 µM (inactive) in test [5]; > 100 µM (inactive) in [6]. Moreover, the GI50 in [7], in [8], in test [9], in test [10], in test [11] and in test [12] was > 100 µM (inactive) in each case. Also, the GI50 in test [13], in test [14], in test [15], in test [16], in test [17] and in [18] was > 100 µM (inactive) each time. In addition, in test [19], the GI50 is > 100 µM (inactive).
In the case of `CCCC(=O)NC(C(=O)OCC)(N1CCOCC1)C(F)(F)F` (stereo not given), the GI50 in [1], in test [2], in test [3], in test [4], in [5] and in [6] was > 100 µM (inactive) each time. Besides, the GI50 in test [7], in test [8], in test [9], in test [10], in test [11] and in test [12] was > 100 µM (inactive) in each case. For the same molecule, the GI50 in [13], in test [14], in [15], in test [16], in test [17] and in [18] was > 100 µM (inactive) in each case. The GI50 in test [19] was > 100 µM (inactive).
With `CNC(=O)Nc1ccccc1`, the GI50 in test [1] was > 100 µM (inactive); in [2], > 100 µM (inactive); in test [3] it was > 100 µM (inactive); in [4], > 100 µM (inactive); in [5] it was > 74.6 µM (inactive); in [6] it was > 100 µM (inactive). Further, the GI50 in test [7], in test [8], in [9], in test [10], in test [11] and in test [12] was > 100 µM (inactive) throughout. The GI50 in test [13], in [14], in test [15], in test [16], in test [17] and in [18] was > 100 µM (inactive) each time. Also, the GI50 in [19] is > 100 µM (inactive).
`O[C@H]1[C@H]2[C@H](O)C[C@H](CCOCc3ccccc3)CN2C[C@H]1O`: the GI50 is > 100 µM (inactive) in test [1]; > 100 µM (inactive) in test [2]; > 100 µM (inactive) in [3]; > 100 µM (inactive) in test [4]; 45.4 µM (inactive) in test [5]; > 100 µM (inactive) in test [6]. Besides, the GI50 in test [7], in test [8], in test [9], in [10], in test [11] and in test [12] was > 100 µM (inactive) each time. For the same molecule, the GI50 in test [13], in test [14], in test [15], in test [16], in test [17] and in [18] was > 100 µM (inactive) throughout. The GI50 in test [19] is > 100 µM (inactive).
